This assay in a line: Hydrogen peroxide remaining in solutions of PA or PEDOT-S/OH. As to conditions: hydrogen peroxide solution, after 3 days. The protocol: The presence of ROS was determined using CellROX Green Reagent (ThermoFisher). Briefly, CellROX was added to cells for a final concentration of 5 μM and incubated for 30 mins at 37° C. Wells were washed 3× with PBS and fluorescence intensity was read at 485/520 nm using Cyation3. For solution studies, CellROX was added to solutions of PEDOT or PA containing 10 μM H2O2 at various time points.

C16-A2G2E4GIKVAV [PA]: the peroxide still present is roughly 75%.

For the origin of these results see patent publication US20250154455A1, “BIOACTIVE AND ANTIOXIDANT SUPRAMOLECULAR POLYMER HYDROGELS FOR NEURAL CELL CULTURE” (Northwestern University, priority 2023, published 2025).
